Reference: the supplement of paper PMC10307832

Tests used:
Test in all cases: relative viability (nuclei count vs DMSO), 5 days (fraction); higher = more cells survive
[1] = compound: COc1cc(N2CCC(N3CCN(C)CC3)CC2)ccc1Nc1ncc(Cl)c(Nc2ccccc2S(=O)(=O)C(C)C)n1 [NVP-TAE684] + COc1cccc2cc(-c3nc([C@H]4CC[C@H](C(=O)O)CC4)n4ncnc(N)c34)[nH]c12 [OSI-027] (partner 0.5 µM)
In short: (§1)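 Lung cancer cell lines were pin-tool dosed in 1536-well plates on the day after seeding, with either a lone drug or a fixed anchor-drug dose plus five library-drug doses (not always all listed) in √10 steps. Nuclei were counted on 4× images after 5 days. Relative viability is the ratio of treated-well to vehicle-well nuclei counts, with each value a median of duplicate plates.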

[2] = compound: COc1cc(N2CCC(N3CCN(C)CC3)CC2)ccc1Nc1ncc(Cl)c(Nc2ccccc2S(=O)(=O)C(C)C)n1 [NVP-TAE684] + CS(=O)(=O)N1CCN(Cc2cc3nc(-c4cccc5[nH]ncc45)nc(N4CCOCC4)c3s2)CC1 [Pictilisib] (partner 1 µM)
In short: as §1

[3] = compound: C1=CC=C2C(=C1)N=C(S2)C(C#N)C3=NC(=NC=C3)NCCC4=CN=CC=C4 + Cc1nc(Nc2ncc(C(=O)Nc3c(C)cccc3Cl)s2)cc(N2CCN(CCO)CC2)n1 [Dasatinib] (partner 0.075 µM)
In short: as §1

[4] = compound: COc1cc(N2CCC(N3CCN(C)CC3)CC2)ccc1Nc1ncc(Cl)c(Nc2ccccc2S(=O)(=O)C(C)C)n1 [NVP-TAE684] + Nc1nc2[nH]cc(CCc3ccc(C(=O)N[C@@H](CCC(=O)O)C(=O)O)cc3)c2c(=O)[nH]1 [Pemetrexed] (partner 0.2 µM)
In short: as §1

[5] = compound: C1=CC=C2C(=C1)N=C(S2)C(C#N)C3=NC(=NC=C3)NCCC4=CN=CC=C4 + NC(=O)Nc1cc(-c2cccc(F)c2)sc1C(=O)N[C@H]1CCCNC1 [AZD7762] (partner 0.2 µM)
In short: as §1

| Cell Line | relative viability ([1]; first compound 0.2 µM) | relative viability ([1]; first compound 0.6325 µM) | relative viability ([1]; first compound 2 µM) | relative viability ([2]; first compound 0.2 µM) | relative viability ([2]; first compound 0.6325 µM) | relative viability ([2]; first compound 2 µM) | relative viability ([3]; first compound 0.005 µM) | relative viability ([3]; first compound 0.01581 µM) | relative viability ([3]; first compound 0.05 µM) | relative viability ([3]; first compound 0.1581 µM) | relative viability ([3]; first compound 0.5 µM) | relative viability ([4]; first compound 0.2 µM) | relative viability ([4]; first compound 0.6325 µM) | relative viability ([4]; first compound 2 µM) | relative viability ([5]; first compound 0.005 µM) | relative viability ([5]; first compound 0.01581 µM) | relative viability ([5]; first compound 0.05 µM) | relative viability ([5]; first compound 0.1581 µM) | relative viability ([5]; first compound 0.5 µM) |
| --- | --- | --- | --- | --- | --- | --- | --- | --- | --- | --- | --- | --- | --- | --- | --- | --- | --- | --- | --- |
| LCLC-97TM1 | 0.52 | 0.473 | 0.14 | 0.112 | 0.145 | 0.148 | 0.735 | 0.923 | 1.03 | 0.99 | 0.792 | 0.184 | 0.144 | 0.114 | 0.153 | 0.192 | 0.342 | 0.291 | 0.21 |
| LCLC-103H | 0.445 | 0.467 | 0.372 | 0.71 | 0.567 | 0.451 | 0.415 | 0.456 | 0.473 | 0.507 | 0.312 | 0.473 | 0.48 | 0.478 | 0.849 | 0.784 | 0.804 | 0.929 | 0.779 |
| LK-2 | 0.178 | 0.17 | 0.168 | 0.649 | 0.472 | 0.343 | 0.393 | 0.264 | 0.243 | 0.26 | 0.311 | 0.271 | 0.229 | 0.175 | 0.347 | 0.41 | 0.488 | 0.454 | 0.445 |
| LOU-NH91 | 0.746 | 0.674 | 0.571 | 0.635 | 0.462 | 0.481 | 0.501 | 0.567 | 0.509 | 0.58 | 0.471 | 0.364 | 0.349 | 0.437 | 0.687 | 0.758 | 0.734 | 0.798 | 0.724 |
| LU99A | 0.319 | 0.265 | 0.239 | 0.288 | 0.362 | 0.249 | 0.532 | 0.662 | 0.52 | 0.855 | 0.767 | 0.192 | 0.147 | 0.194 | 0.444 | 0.469 |  | 0.343 | 0.262 |
| LXF-289 | 0.798 | 0.808 | 0.317 | 0.717 | 0.812 | 0.578 | 0.152 | 0.237 | 0.209 | 0.24 | 0.179 | 0.874 | 0.983 | 0.805 | 1.01 | 1.17 | 1.06 | 1.27 | 0.982 |
| NCI-H23 | 0.666 | 0.544 | 0.236 | 0.518 | 0.422 | 0.377 | 0.645 | 0.836 | 1.02 | 0.974 | 0.993 | 0.719 | 0.556 | 0.395 |  | 0.239 | 0.254 | 0.175 | 0.249 |
| NCI-H322M | 0.426 | 0.469 | 0.336 | 0.43 | 0.463 | 0.388 | 0.232 | 0.238 | 0.23 | 0.259 | 0.26 | 0.635 | 0.593 | 0.479 | 0.522 | 0.522 | 0.436 | 0.564 | 0.56 |
| NCI-H358 | 0.718 | 0.616 | 0.15 | 0.305 | 0.261 | 0.219 | 0.177 | 0.155 | 0.162 | 0.178 | 0.245 | 0.166 | 0.151 | 0.13 | 0.579 | 0.492 |  | 0.592 | 0.496 |
| NCI-H441 | 0.581 | 0.626 | 0.379 | 0.515 | 0.459 | 0.321 |  | 0.663 | 0.638 | 0.473 | 0.425 | 0.271 | 0.29 | 0.223 | 1.02 | 1.14 | 1.28 | 1.02 | 0.986 |
| NCI-H460 | 0.811 | 0.607 | 0.162 | 0.333 | 0.362 | 0.295 | 0.356 | 0.47 | 0.451 | 0.732 | 0.418 | 0.0526 | 0.0587 | 0.0483 | 0.508 | 0.641 | 0.672 | 0.69 | 0.43 |
| NCI-H596 | 0.903 | 0.689 | 0.509 | 0.396 | 0.372 | 0.335 | 0.559 | 0.559 | 0.534 | 0.526 | 0.619 | 0.56 | 0.43 | 0.45 | 0.985 | 1.31 | 1 | 1.2 | 1.09 |
| NCI-H647 | 0.692 | 0.58 | 0.417 | 0.429 | 0.381 | 0.473 | 0.128 | 0.188 | 0.219 | 0.24 | 0.135 | 0.18 | 0.148 | 0.106 | 0.27 | 0.281 | 0.513 | 0.512 | 0.372 |
| NCI-H650 | 0.441 | 0.458 | 0.332 | 0.789 | 0.69 | 0.497 | 0.43 |  | 0.405 | 0.589 | 0.476 | 0.901 | 0.939 | 0.757 | 1.12 | 1.07 | 0.891 | 1.23 | 1.09 |
| NCI-H838 | 0.389 | 0.324 | 0.175 | 0.408 | 0.356 | 0.235 | 0.204 | 0.28 | 0.325 | 0.264 | 0.262 | 0.25 | 0.239 | 0.17 | 0.889 | 0.891 | 0.907 | 0.92 | 0.836 |
| NCI-H1355 | 0.423 | 0.325 | 0.273 | 0.467 | 0.323 | 0.343 | 0.674 | 0.66 | 0.699 | 0.772 | 0.478 | 1.01 | 0.984 | 0.793 | 0.702 | 0.698 | 0.675 | 0.967 | 0.559 |
